Assay results published in PubChem BioAssay AID248 (DTP/NCI, 2004).
Toxic doses and inconclusive results are not listed. Cut-off read from the data, not from the text of the source: active = T/C of 150% or more; inactive = T/C below 125%.

System: L1210 leukemia ip in BDF1 mice, survival T/C
Test: NCI In Vivo Anticancer Drug Screen. Data for tumor model L1210 Leukemia (intraperitoneal) in B6D2F1 (BDF1) mice
Settings: endpoint: mean survival time, higher = longer survival
Summary of the method: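 Mice bearing the transplanted tumor received compound or vehicle. Survival of the treated group was divided by that of the vehicle-treated control group to give the ratio.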

Measured: T/C

O=Cc1cn(C2CC(O)C(CO)O2)c(=O)[nH]c1=O (stereo not drawn)
inactive: dose: 50.0 mg/kg/injection, schedule: Q01DX009 (ip), vehicle: Klucel (hydroxypropylcellulose) (HPC) 117 % of control | dose: 50.0 mg/kg/injection, schedule: Q04DX003 (ip), vehicle: saline with Tween-80 103 % of control | dose: 100.0 mg/kg/injection, schedule: Q01DX005 (ip), vehicle: saline 108 % of control | dose: 100.0 mg/kg/injection, schedule: Q04DX003 (ip), vehicle: saline with Tween-80 99 % of control | dose: 200.0 mg/kg/injection, schedule: Q01DX005 (ip), vehicle: saline 110 % of control | dose: 200.0 mg/kg/injection, schedule: Q04DX003 (ip), vehicle: saline with Tween-80 102 % of control | dose: 400.0 mg/kg/injection, schedule: Q01DX009 (ip), vehicle: Klucel (hydroxypropylcellulose) (HPC) 114 % of control | dose: 400.0 mg/kg/injection, schedule: Q04DX003 (ip), vehicle: saline with Tween-80 96 % of control
